Like-named read-outs stand apart in the source and are kept apart here.
Tests used:
[1] = target: T1, PI3Kβ (Homo sapiens, UniProt P42338); test: Enzyme binding assay (KINOMEscan, DiscoveRx); details: PIK3Cβ_h, read-out: Kd PIK3Cβ_h
T1 construct: purchased DiscoveRx Corporation, San Diego (contract service, KINOMEscan)
Summary of the method: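 KINOMEscan binding platform; read-out is the inhibitor binding constant Kd (nM).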

[2] = target: T2, PI3Kδ (Homo sapiens, UniProt O00329); test: Enzyme binding assay (KINOMEscan, DiscoveRx); details: PIK3Cδ_h
T2 construct: purchased DiscoveRx Corporation, San Diego (contract service, KINOMEscan)
T2 sequence (O00329 1-1044): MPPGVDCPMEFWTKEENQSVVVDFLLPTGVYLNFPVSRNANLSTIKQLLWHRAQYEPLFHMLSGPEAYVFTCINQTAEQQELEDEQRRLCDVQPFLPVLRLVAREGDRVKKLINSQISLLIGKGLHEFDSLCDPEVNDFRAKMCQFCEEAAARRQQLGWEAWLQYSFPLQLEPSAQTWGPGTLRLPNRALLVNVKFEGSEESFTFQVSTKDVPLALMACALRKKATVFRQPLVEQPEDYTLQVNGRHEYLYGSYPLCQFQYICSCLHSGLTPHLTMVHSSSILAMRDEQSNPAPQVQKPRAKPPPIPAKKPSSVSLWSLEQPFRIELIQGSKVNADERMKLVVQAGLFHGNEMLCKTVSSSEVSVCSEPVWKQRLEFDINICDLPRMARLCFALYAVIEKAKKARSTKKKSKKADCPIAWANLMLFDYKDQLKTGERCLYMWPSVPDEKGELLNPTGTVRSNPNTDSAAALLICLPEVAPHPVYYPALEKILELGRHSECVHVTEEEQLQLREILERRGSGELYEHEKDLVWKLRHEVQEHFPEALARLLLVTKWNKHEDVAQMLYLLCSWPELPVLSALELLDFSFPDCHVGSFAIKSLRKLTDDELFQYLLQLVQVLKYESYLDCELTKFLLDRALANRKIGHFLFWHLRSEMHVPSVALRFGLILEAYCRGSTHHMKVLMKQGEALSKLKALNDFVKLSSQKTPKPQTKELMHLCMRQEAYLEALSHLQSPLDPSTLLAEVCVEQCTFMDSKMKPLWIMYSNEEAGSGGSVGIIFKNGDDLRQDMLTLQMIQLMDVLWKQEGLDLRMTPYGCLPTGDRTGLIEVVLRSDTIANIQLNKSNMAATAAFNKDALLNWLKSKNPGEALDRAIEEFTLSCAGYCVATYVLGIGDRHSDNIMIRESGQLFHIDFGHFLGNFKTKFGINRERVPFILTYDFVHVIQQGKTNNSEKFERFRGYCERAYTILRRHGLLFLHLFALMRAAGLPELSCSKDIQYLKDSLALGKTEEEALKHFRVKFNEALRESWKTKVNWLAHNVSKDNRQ
Summary of the method: (§1)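 KINOMEscan readout; values are kinase binding affinities.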

[3] = target: T3, kinase enzymes (Homo sapiens, UniProt P42336); test: Enzyme binding assay (KINOMEscan, DiscoveRx), further kinases of Table A; details: PIK3Cα_h
T3 construct: purchased DiscoveRx Corporation, San Diego (contract service, KINOMEscan)
Summary of the method: as §1

[4] = target: T4, kinase enzymes (Homo sapiens, UniProt P42345); test: as above; details: MTOR_h
T4 construct: purchased DiscoveRx Corporation, San Diego (contract service, KINOMEscan)
Summary of the method: as §1

[5] = target: T5, kinase enzymes (Homo sapiens, UniProt P48736); test: as above; details: PIK3Cγ_h
T5 construct: purchased DiscoveRx Corporation, San Diego (contract service, KINOMEscan)
Summary of the method: as §1

[6] = system: Akt phosphorylated at Ser473 in PC-3 cells; test: Cellular assay: phosphorylation of Akt at Ser473 in PC-3 cells (MSD ELISA); type: cell-based; details: PC-3 cells, 60 min compound incubation, MSD ELISA, read-out: IC50 pAkt_S473
Summary of the method: (§2)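 Electrochemiluminescent sandwich ELISA read-out: phospho-specific capture (Ser473 or Thr308), Sulfo-tag anti-total Akt detection, signal proportional to phospho-Akt. Cells treated 60 min at 37° C with compound, DMSO 0.3%. IC50 fitted from five concentrations.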

[7] = system: Akt phosphorylated at Thr308 in PC-3 cells; test: Cellular assay: phosphorylation of Akt at Thr308 in PC-3 cells (MSD ELISA); type: cell-based; details: PC-3 cells, 60 min compound incubation, MSD ELISA, read-out: IC50 pAkt_Thr308
Summary of the method: as §2

T5 sequence (P48736 whole entry): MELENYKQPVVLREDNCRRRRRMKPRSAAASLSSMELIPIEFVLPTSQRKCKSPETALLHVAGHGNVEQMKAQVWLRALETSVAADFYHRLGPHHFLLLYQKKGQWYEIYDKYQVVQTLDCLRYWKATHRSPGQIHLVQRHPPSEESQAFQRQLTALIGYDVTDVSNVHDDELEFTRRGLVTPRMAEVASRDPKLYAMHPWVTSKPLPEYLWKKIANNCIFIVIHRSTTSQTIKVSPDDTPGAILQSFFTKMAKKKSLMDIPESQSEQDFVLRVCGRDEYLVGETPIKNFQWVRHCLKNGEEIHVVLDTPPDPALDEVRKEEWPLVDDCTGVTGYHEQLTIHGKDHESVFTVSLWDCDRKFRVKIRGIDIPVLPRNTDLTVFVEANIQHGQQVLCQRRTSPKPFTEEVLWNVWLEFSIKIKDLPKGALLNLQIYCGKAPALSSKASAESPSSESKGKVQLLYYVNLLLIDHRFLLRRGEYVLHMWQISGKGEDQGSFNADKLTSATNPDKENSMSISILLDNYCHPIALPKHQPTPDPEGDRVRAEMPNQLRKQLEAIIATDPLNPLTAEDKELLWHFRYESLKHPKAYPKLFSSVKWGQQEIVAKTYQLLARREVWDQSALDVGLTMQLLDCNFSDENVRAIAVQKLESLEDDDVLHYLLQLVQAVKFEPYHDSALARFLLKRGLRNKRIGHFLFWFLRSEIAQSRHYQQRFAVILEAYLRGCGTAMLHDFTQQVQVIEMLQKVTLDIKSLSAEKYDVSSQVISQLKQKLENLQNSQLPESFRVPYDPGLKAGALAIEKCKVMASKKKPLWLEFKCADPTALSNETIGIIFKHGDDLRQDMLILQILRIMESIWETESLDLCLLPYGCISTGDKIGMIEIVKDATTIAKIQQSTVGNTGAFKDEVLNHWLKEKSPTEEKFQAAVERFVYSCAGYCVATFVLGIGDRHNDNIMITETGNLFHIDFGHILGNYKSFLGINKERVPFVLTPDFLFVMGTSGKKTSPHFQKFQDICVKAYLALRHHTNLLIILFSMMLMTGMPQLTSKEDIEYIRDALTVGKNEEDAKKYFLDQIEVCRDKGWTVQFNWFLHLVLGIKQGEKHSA
T1 sequence (P42338 whole entry): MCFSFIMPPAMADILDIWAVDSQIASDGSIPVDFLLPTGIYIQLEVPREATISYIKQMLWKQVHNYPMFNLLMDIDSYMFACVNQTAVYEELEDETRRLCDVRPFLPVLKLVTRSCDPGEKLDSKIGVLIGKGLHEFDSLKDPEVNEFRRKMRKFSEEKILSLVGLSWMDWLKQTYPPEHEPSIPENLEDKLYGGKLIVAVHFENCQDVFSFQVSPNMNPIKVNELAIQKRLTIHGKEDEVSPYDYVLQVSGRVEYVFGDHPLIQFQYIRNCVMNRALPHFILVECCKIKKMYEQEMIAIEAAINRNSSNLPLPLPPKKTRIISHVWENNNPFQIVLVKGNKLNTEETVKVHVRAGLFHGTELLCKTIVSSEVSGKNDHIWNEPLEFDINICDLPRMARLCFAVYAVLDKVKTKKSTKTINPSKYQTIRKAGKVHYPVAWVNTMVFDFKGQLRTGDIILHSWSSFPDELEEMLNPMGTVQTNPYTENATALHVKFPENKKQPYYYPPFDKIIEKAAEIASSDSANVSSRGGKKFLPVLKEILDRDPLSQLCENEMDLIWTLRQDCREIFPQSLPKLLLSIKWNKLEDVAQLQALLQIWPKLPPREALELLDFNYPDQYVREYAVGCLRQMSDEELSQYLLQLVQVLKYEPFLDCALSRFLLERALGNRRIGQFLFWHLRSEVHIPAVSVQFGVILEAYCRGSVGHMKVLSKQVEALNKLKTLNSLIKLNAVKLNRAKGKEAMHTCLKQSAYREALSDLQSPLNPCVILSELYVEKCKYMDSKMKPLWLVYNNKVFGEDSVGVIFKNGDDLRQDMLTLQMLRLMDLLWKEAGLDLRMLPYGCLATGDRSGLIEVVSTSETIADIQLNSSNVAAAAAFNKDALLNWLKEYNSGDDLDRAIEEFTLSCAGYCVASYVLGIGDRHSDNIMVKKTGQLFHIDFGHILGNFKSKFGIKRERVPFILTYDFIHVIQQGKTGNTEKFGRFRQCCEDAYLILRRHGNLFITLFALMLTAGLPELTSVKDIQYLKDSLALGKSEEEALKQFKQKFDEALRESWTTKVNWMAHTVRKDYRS
T3 sequence (P42336 whole entry): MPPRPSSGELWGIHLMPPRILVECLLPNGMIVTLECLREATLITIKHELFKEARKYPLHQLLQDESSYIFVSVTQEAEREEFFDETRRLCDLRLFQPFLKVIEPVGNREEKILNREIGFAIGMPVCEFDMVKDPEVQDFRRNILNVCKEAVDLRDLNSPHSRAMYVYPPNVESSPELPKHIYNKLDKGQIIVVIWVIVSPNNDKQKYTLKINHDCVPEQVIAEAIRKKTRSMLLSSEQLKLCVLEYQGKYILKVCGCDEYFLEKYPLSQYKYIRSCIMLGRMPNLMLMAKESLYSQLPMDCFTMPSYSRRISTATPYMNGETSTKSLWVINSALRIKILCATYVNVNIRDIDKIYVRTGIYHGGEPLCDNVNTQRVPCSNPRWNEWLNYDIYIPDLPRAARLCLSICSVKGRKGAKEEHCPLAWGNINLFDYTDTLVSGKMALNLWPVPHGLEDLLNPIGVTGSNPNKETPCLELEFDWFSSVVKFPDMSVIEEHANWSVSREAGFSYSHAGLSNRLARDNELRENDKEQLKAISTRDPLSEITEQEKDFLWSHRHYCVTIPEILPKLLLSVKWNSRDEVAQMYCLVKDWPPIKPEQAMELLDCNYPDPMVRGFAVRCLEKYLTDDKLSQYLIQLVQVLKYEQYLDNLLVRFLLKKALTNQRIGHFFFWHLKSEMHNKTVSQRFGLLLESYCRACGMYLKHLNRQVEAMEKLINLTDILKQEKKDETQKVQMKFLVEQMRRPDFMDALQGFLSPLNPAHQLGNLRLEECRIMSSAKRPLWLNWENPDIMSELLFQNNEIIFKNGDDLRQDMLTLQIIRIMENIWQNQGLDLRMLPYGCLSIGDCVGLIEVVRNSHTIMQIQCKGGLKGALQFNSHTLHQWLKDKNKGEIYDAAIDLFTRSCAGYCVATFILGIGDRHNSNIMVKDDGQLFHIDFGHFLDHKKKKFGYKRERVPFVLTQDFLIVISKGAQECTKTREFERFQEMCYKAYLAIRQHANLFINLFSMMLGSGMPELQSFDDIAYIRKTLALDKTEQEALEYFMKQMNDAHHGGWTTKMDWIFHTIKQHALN

SMILES	Kd [1]	Kd [2]	Kd [3]	Kd [4]	Kd [5]	IC50 [6]	IC50 [7]	IC50 ([6]; Homo sapiens, PC-3, 1 h)	IC50 ([7]; Homo sapiens, PC-3, 1 h)
Cc1c(F)cccc1CN(C)c1cc(C(=O)N2CCNC(C(F)(F)F)C2)cc2ncc(N3CCOCC3)nc12 (single isomer, unassigned) [Compound 367b]	35 nM	427 nM	2460 nM	28200 nM	> 30200 nM	> 513 nM	> 513 nM	–	–
CC(Nc1ccc(F)c(F)c1)c1cc(C(=O)NCCCO)cc2ncc(N3CCOCC3)nc12 (single isomer, unassigned) [Compound 280b]	813 nM	21400 nM	22400 nM	> 30200 nM	24500 nM	> 513 nM	> 513 nM	–	–
CC(Nc1ccc(F)c(F)c1)c1cc(C(=O)NCCN(C)C)cc2ncc(N3CCOCC3)nc12 (stereo not drawn) [Compound 299b]	60 nM	5250 nM	13200 nM	> 30200 nM	19500 nM	> 513 nM	> 513 nM	–	–
CC(Nc1cc(F)cc(F)c1)c1cc(C(=O)NCCO)cc2ncc(N3CCOCC3)nc12 (single isomer, unassigned) [Compound 189]	2510 nM	28200 nM	> 30200 nM	> 30200 nM	4470 nM	> 513 nM	> 513 nM	–	–
Cc1ccc(NC(C)c2cc(C(=O)NCCO)cc3ncc(N4CCOCC4)nc23)cc1F (single isomer, unassigned) [Compound 295a]	288 nM	6760 nM	6460 nM	14500 nM	> 30200 nM	> 513 nM	> 513 nM	–	–
C[C@@H]1CN(c2cnc3cc(C(=O)N(C)C)cc(C4CCCN4c4cc(F)cc(F)c4)c3n2)CCO1 (stereo partly drawn) [Compound 3]	1 nM	20 nM	47 nM	17800 nM	229 nM	3 nM	~3 nM	–	–
Cc1c(F)cccc1CN(C)c1cc(C(=O)N2CCNC(C(F)(F)F)C2)cc2ncc(N3CCOCC3)nc12 (single isomer, unassigned) [Compound 367a]	63 nM	1150 nM	4070 nM	29500 nM	23400 nM	–	–	> 513 nM	> 513 nM
COC(=O)c1cc(C(C)Nc2cc(F)cc(F)c2)c2nc(N3CCOCC3)cnc2c1 (stereo not drawn) [Compound 235]	50 nM	7590 nM	> 32000 nM	> 32000 nM	24500 nM	–	–	214 nM	79 nM
CC(Oc1cccc(F)c1)c1cc(C(=O)O)cc2ncc(N3CCOCC3)nc12 (single isomer, unassigned) [Compound 257b]	22 nM	468 nM	851 nM	2820 nM	3090 nM	–	–	> 513 nM	> 513 nM
C[C@@H]1CN(c2cnc3cc(C(=O)N(C)C)cc(C4CCCN4c4cc(F)cc(F)c4)c3n2)CCO1 (stereo partly drawn) [Compound 4]	1700 nM	22900 nM	23400 nM	> 30200 nM	> 30200 nM	–	–	> 513 nM	> 513 nM
CC(Oc1cc(F)cc(F)c1)c1cc(C(=O)N2CCC2)cc2ncc(N3CCO[C@H](CO)C3)nc12 (mixture of isomers) [Compound 81]	30 nM	2630 nM	19100 nM	> 30200 nM	29500 nM	–	–	~490 nM	219 nM
CN(C)C(=O)c1cc(CNc2cc(F)cc(F)c2)c2nc(N3CCOCC3)cnc2c1 [Compound 332]	15 nM	4270 nM	2950 nM	> 30200 nM	21400 nM	–	–	~316 nM	112 nM
CC(Oc1ccc(F)c(F)c1)c1cc(C(=O)N2CC[C@@H](N(C)C)C2)cc2ncc(N3CCOCC3)nc12 (single isomer, unassigned) [Compound 298b]	186 nM	10200 nM	24000 nM	> 30200 nM	> 30200 nM	501 nM	> 513 nM	–	–
CC(Nc1cc(F)cc(F)c1)c1cc(C(=O)NC[C@@H](C)O)cc2ncc(N3CCOCC3)nc12 (single isomer, unassigned) [Compound 202]	3950 nM	> 30200 nM	> 30200 nM	6030 nM	3320 nM	> 513 nM	> 513 nM	–	–

The remaining molecules from weak to strong by Kd [1], led by results:

Kd [1]	Kd [2]	Kd [3]	Kd [4]	Kd [5]	IC50 [6]	IC50 [7]	IC50 ([6]; Homo sapiens, PC-3, 1 h)	IC50 ([7]; Homo sapiens, PC-3, 1 h)	SMILES
14 nM	9330 nM	> 30200 nM	> 30200 nM	> 30200 nM	468 nM	339 nM	–	–	CC(Nc1cc(F)c(F)c(F)c1)c1cc(C(=O)N(C)C2CCNC2)cc2ncc(N3CCOCC3)nc12 (single isomer, unassigned) [Compound 296b]
9 nM	282 nM	2040 nM	> 30200 nM	19500 nM	–	–	> 513 nM	331 nM	CC(Oc1cccc(F)c1F)c1cc(C(=O)N(C)C)cc2ncc(N3CCOCC3)nc12 (single isomer, unassigned) [Compound 73]
6 nM	891 nM	5250 nM	7940 nM	16200 nM	372 nM	105 nM	–	–	COC1CN(Cc2cc(C(C)Nc3cc(F)cc(F)c3)c3nc(N4CCOCC4)cnc3c2)CC1OC (single isomer, unassigned) [Compound 207]
5 nM	813 nM	2820 nM	> 30200 nM	15800 nM	–	–	182 nM	91 nM	CC(Nc1cc(F)cc(F)c1)c1cc(CN2CCO[C@H](CO)C2)cc2ncc(N3CCOCC3)nc12 (single isomer, unassigned) [Compound 196]
4 nM	1290 nM	2140 nM	> 30200 nM	24000 nM	–	–	79 nM	49 nM	CC(Nc1cc(F)cc(F)c1)c1cc(C(=O)N2CCC(NCC(F)(F)F)C2)cc2ncc(N3CCOCC3)nc12 (stereo not drawn) [Compound 217]
3 nM	331 nM	1200 nM	> 30200 nM	10700 nM	–	–	263 nM	110 nM	CC(Oc1cc(F)cc(F)c1)c1cc(C(=O)N(C)CCO)cc2ncc(N3CCOCC3)nc12 (racemic) [Compound 59]
1 nM	347 nM	933 nM	16600 nM	6170 nM	–	–	32 nM	20 nM	Cc1c(F)cccc1CNc1cc(C(=O)N(C)CCNC(C)C)cc2ncc(N3CCOCC3)nc12 [Compound 385]
1 nM	269 nM	6310 nM	> 30200 nM	11000 nM	~45 nM	56 nM	–	–	CC(Oc1ccc(F)c(F)c1)c1cc(C(=O)NCCN(C)C)cc2ncc(N3CCOCC3)nc12 (single isomer, unassigned) [Compound 299a]
0.3 nM	151 nM	2880 nM	25700 nM	5620 nM	40 nM	26 nM	–	–	CNCCNC(=O)c1cc([C@@H](C)Oc2cccc(F)c2)c2nc(N3CCOCC3)cnc2c1 [Compound 122]
0.2 nM	33 nM	466 nM	18600 nM	1220 nM	5 nM	2 nM	–	–	CNCCN(C)C(=O)c1cc(C(C)Nc2cc(F)c(F)c(F)c2)c2nc(N3CCOCC3)cnc2c1 (single isomer, unassigned) [Compound 335a]

Reference: patent publication US10526316B2, “Quinoxaline and pyridopyrazine derivatives as PI3Kβ inhibitors” (Janssen Pharmaceutica NV, priority 2015, dated 2020)
